Legend:
[1] = system: osteoblast-differentiating MSCs; assay: Osteoblast differentiation of human mesenchymal stem cells; details: osteoblastogenic medium, 14 days of differentiation
Excerpt: The Reina Sofia University Hospital Review Board approved this study and the procedures followed were in accordance with the ethical standards of the ethic committee from Hospital Reina Sofía and with the Declaration of Helsinki. Bone marrow donors were recruited by the Haematology Service. All subjects gave their informed consent so that the bone marrow aliquots extracted for clinical purposes could also be used for mesenchymal bone marrow research. […] Adipogenic and osteoblast differentiation was performed as described[22]. Treatment with RZG and VCE-003.2 started at the same time as the differentiation process. […] The images captured with the light microscope were analyzed with the ImageJ Software (NIH; Bethesda, MD, USA).
Cells were collected at day 14 of differentiation and total RNA was extracted using the High Pure RNA Isolation kit (Roche Diagnostics). The total amount of RNA extracted was quantified using NanoDrop 2000 (Thermo Fisher Scientific Inc). Total RNA (1 μg) was retrotranscribed using the iScriptTM cDNA Synthesis Kit (Bio-Rad; Hercules, CA, USA), and the cDNA generated was analyzed by real-time PCR, using the iQ^TM SYBR Green Supermix (Bio-Rad; Hercules, CA, USA). Real-time PCR to quantify the mRNA of osteoblastic and adipocityc markers was performed using a CFX96 Real-time PCR Detection System (Bio-Rad; Hercules, CA, USA). […]

Nrf2 pathway = assay: Nrf2 transcriptional assay (NQO1-ARE-Luc) in N2a cells; format: cell-based; details: 6 hours
Experimental: (§1) Nrf2 transcriptional assay: To study Nrf2 transcriptional activity N2a cells were seeded (105/ml) in 24-well plates and transientl y transfected with the plasmid NQO1-ARE-Luc using Roti©-Fect following the manufacturer’s instructions (Carl Roth, Karlsruhe, German y). After 24 hours, cells were incubated wi th the compounds at the concentrations indicated during 6 hours and the luciferase activit y was determined using an Autolumat LB 953 (EG&G Berthold, Bad Wildbad, Germany). Protein content was determined b y the Bradford method to calculate R LU/Pg of protein and the results were expressed as a fold induction over untreated cells.
Supplementary Figure S1. Non-elect rophilic activity for VCE-003.2. (a) Reactive ox ygen species production.
In cu c yt e TM Liv e-Cell Im agin g S ystem. Results are ex pressed as m ean of t otal integrated intensity (ROS positive cells) ± S.D. (b) Effect on Nrf2 transcriptional activity. N2a cells were transientl y trans fected with the NQO1-ARE-Luc plasmid and incubated with the indicated compound concentrations for 6 hours prior to luciferase activit y determination.
Results are expressed as the fold induction ± S.D. relative to untreated control. All the results are representative of at least three independent experiments. Statistics: **p<0.01 VCE-003 treatment vers us Vehicle treated cells.

[2] = Cysteamine recovery assay (thiol trapping)
Experimental: cysteamine to form polar and not extractable adducts.
Determination of ROS: N2a cells were seeded at 25x 10^3 cells/ml in 96-well plates and incubated with 0.25 ȝM 5-(and-6 )-chloro meth yl-2ƍ,7ƍ-dichlorodihydrofluorescein diacetate acet yl ester (C M-H 2 DCFDA) for 20 minutes at 37°C. Then, the cells were treated with either VCE-003 or VCE-003.2 for 2 hours. Cells exposed to pro-oxidant tert-Butyl h ydroperoxide (TBHP) were used as positive control. H 2 DCFDA oxidation was detected using an Incuc yteTM Live-Cell Imaging S ystem (Hertfordshire, UK).
as §1

PPARγ = target: T1, PPARγ (Homo sapiens, UniProt P37231); assay: biochemical; format: binding
T1 construct: purchased Life Technologies
T1 sequence (P37231 232-505 limits assumed): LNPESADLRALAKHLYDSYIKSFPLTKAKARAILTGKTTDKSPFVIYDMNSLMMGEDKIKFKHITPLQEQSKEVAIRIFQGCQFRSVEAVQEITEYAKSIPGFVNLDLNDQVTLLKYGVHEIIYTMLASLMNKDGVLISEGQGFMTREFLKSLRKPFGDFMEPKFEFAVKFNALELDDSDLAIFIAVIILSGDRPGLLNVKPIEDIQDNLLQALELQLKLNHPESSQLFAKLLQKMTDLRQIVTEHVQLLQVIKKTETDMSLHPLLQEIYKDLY
Experimental: The indicated concentrations were tested and results were plotted to obtain the polynomial trend on a logarithmic range. […] HEK293 cells were co-transfected with GAL4-PPARγ and GAL4-luc and incubated with the indicated compound concentrations for 6 hours prior to luciferase activity determination. Results are expressed as the fold induction ± S.D. relative to untreated control. […] All experiments are shown as mean ± S.D. from at least three independent experiments.
To determine PPARγ binding activity the PolarScreen^TM PPAR Competitor Assay kit (Life Technologies, CA, USA) was used following the manufacturer’s instructions. […] To study PPARγ transcriptional activity HEK293 cells were seeded in 24-well plates and transiently co-transfected with the expression vector GAL4-PPARγ and the luciferase reporter vector GAL4-luc using Roti-Fect (Carl Roth, Karlsruhe, Germany) following the manufacturer’s instructions. To correct for transfection efficacy, 100 ng Renilla luciferase (pRL-CMV) was also cotransfected. After stimulation, the luciferase activities were quantified using Dual-Luciferase Assay (Promega, Madison, WI, USA).

[3] = system: QA-induced excitotoxicity in CD1 mice; assay: Intrastriatal QA-induced model of Huntington's disease; format: in vivo
Experimental: Figure 5 Protective action of VCE-003.2 administration in QA-induced excitotoxicity in vivo. (a) CD1 mice were subjected to quinolinic acid (QA) intrastriatal injection and RotaRod performance (fold change) was determined 2 days after lesion in vehicle- and VCE-003.2-treated mice (10 mg/kg). (b) Representative MRI images (Upper panel) and edema volume quantification (lower panel) 5 days after QA injection. Values are expressed as means ± SEM. Sham-Veh and Sham-VCE (n = 7 in each group); QA-Veh (n = 8); QA-VCE (n = 7). **p < 0.01, ***p < 0.001 vs. Vehicle. ^#p < 0.05 vs. QA.
Figure 6 Neuroprotection and attenuation of glial reactivity by VCE-003.2 in QA-induced excitotoxicity in vivo. (a) Representative immunofluorescence images of DARPP32, GFAP, Iba-1 are shown in sham and QA-injected mice treated with vehicle or VCE-003.2 (10 mg/kg). (b) Immunoreactivity of the different markers was quantified with Image J software and referred to the striatal surface analyzed. Values are expressed as means ± SEM. Sham-Veh and Sham-VCE (n = 3); QA-Veh (n = 8); QA-VCE (n = 6). **p < 0.01, ***p < 0.001 vs. QA. Bar size, 200 μm.
Mice were housed under standard conditions (12-h light/dark cycle) in groups with access to food and water ad libitum. All experiments were performed in accordance with European Union guideline and approved by the Animal Research Ethic Committee of Córdoba University (2014PI/017) (3NP model) and by the Animal Research Ethic Committee of Complutense University (CEA-UCM 73/2012) (QA model). Procedures were designed to minimize the number of animals used and their suffering. Excitotoxicity was induced by intrastriatal quinolinic acid (QA) administration (100 nmol in 1 μL PBS solution, unilaterally) as previously described[41] at the following coordinates: +0.6 posterior to bregma, +1.85 medio-lateral and -2.7 dorso-ventral to dura, in 12-week-old CD1 male mice (Harlan Ibérica, Barcelona, Spain). Pharmacological manipulation with VCE-003.2 (10 mg/kg body weight) was performed i.p. daily in 2% Tween 20 and 3% DMSO in saline buffer until sacrifice. Control animals received the corresponding vehicle injections. Motor function was assessed by RotaRod analysis conducted with acceleration from 4 to 40 rpm over a period of 570 s in an LE8200 device (Harvard Apparatus, Barcelona, Spain). […] 3NP-treated animals and their respective non-lesioned controls (injected with PBS) were used for pharmacological studies with VCE-003.2. Treatments consisted of 4 i.p. injections every 24 h with 20 mg/kg VCE-003.2 or vehicle (4% DMSO plus 6,2% Tween 20 in saline buffer), with the first and the last injections 30 min before the first and the last injections of 3NP, respectively. In some experiments, mice received a combination of VCE-003.2 and the PPARγ antagonist T0070907 (5 mg/kg) injected 15 minutes before VCE-003.2. In 3NP-lesioned mice, motor activity, hindlimb clasping, dystonia, and truncal dystonia were evaluated following previously described procedures. All behavioural tests were conducted prior to drug injections to avoid acute effects of the compounds under investigation and all animals were euthanized 12 h after the last injection of 3NP and their brains removed. The right hemispheres were used to dissect the striatum which was frozen in RNAlater (Sigma-Aldrich) and stored at −80 °C for biochemical analyses. […]

CCCCCC1=C(NCC)C(=O)C(C/C=C(\C)CCC=C(C)C)=C(O)C1=O [VCE-003.2]
expression of osteogenic differentiation markers Runx2, SP7, ALP, IBSP [1]: mild and did not inhibit the expression of osteogenic differentiation markers | activation of the Nrf2 pathway (Nrf2 pathway): none of these bioactivities were induced | recovery after treatment with cysteamine (thiol-trapping reactivity) [2]: recovered unscathed | IC50 (PPARγ): 1200 nM | RotaRod performance ([3]; 2 days after QA injury, 10 mg/kg i.p. daily): reversed | edema volume (MRI) ([3]; 5 days after QA injury, 10 mg/kg): edema volume was not affected | QA-induced DARPP32 neuronal loss ([3]; striatum, 10 mg/kg): prevented QA-induced DARRP32 neuronal loss | microglial activation (Iba-1) ([3]; striatum, 10 mg/kg): prevented QA-induced DARRP32 neuronal loss and microglial activation | reactive astrogliosis (GFAP) ([3]; striatum, 10 mg/kg): tendency to attenuate reactive astrogliosis
